Results as given in PubChem BioAssay AID1963866 (Molecular Pharmacology Branch, DTP, NCI, 2024).

Test system: PDC KRAS tumor spheroids with HUVEC/MSC, viability
Assay: Anticancer human tumor 349418-098-R-PDC patient-derived lung adenocarcinoma cell line growth inhibition [KRAS2]
Settings: for IC50: curve of first compound; for viability, T/C: stronger effect = lower value; active = viability on the fitted dose curve at most 10% of control; inactive = the rest
Summary of the method: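 KRAS-mutant tumor cells were grown as spheroids with HUVEC endothelial cells and human MSCs as stroma. Targeted agents were tested alone and with KRAS pathway inhibitors. Doses started at or near clinical Cmax, or 10 microM, descending half-log.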

[1] = second compound 0.1 µM, first compound 0.000316 µM
[2] = second compound 0.1 µM, first compound 0.001 µM
[3] = second compound 0.1 µM, first compound 0.00316 µM
[4] = second compound 0.1 µM, first compound 0.01 µM
[5] = second compound 0.1 µM, first compound 0.0316 µM
[6] = second compound 0.316 µM, first compound 0.000316 µM
[7] = second compound 0.316 µM, first compound 0.001 µM
[8] = second compound 0.316 µM, first compound 0.00316 µM
[9] = second compound 0.316 µM, first compound 0.01 µM
[10] = second compound 0.316 µM, first compound 0.0316 µM
[11] = second compound 1 µM, first compound 0.000316 µM
[12] = second compound 1 µM, first compound 0.001 µM
[13] = second compound 1 µM, first compound 0.00316 µM
[14] = second compound 1 µM, first compound 0.01 µM
[15] = second compound 1 µM, first compound 0.0316 µM
[16] = second compound 3.16 µM, first compound 0.000316 µM
[17] = second compound 3.16 µM, first compound 0.001 µM
[18] = second compound 3.16 µM, first compound 0.00316 µM
[19] = second compound 3.16 µM, first compound 0.01 µM
[20] = second compound 3.16 µM, first compound 0.0316 µM
[21] = second compound 10 µM, first compound 0.000316 µM
[22] = second compound 10 µM, first compound 0.001 µM
[23] = second compound 10 µM, first compound 0.00316 µM
[24] = second compound 10 µM, first compound 0.01 µM
[25] = second compound 10 µM, first compound 0.0316 µM
[26] = second compound 0.1 µM, first compound 0.1 µM
[27] = second compound 0.316 µM, first compound 0.1 µM
[28] = second compound 1 µM, first compound 0.1 µM
[29] = second compound 3.16 µM, first compound 0.1 µM
[30] = second compound 10 µM, first compound 0.1 µM
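Also: spheroids exposed to compounds for seven days before readout.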

CC(=O)Nc1cccc(-n2c(=O)n(C3CC3)c(=O)c3c(Nc4ccc(I)cc4F)n(C)c(=O)c(C)c32)c1 + CNCc1ccccc1-c1csc(C(C)Nc2nc(C)nc3cc(OC)c(OC)cc23)c1
active: viability, T/C [3] 9.99% | viability, T/C [4] 8.08% | viability, T/C [5] 5.08% | viability, T/C [7] 9.67% | viability, T/C [8] 7.39% | viability, T/C [9] 7.29% | viability, T/C [10] 5.28% | viability, T/C [11] 8.66% | viability, T/C [12] 7.27% | viability, T/C [13] 5.84% | viability, T/C [14] 5.69% | viability, T/C [15] 4.51% | viability, T/C (second compound 3.16 µM, first compound 0.0001 µM) 0.05% | viability, T/C [16] 0.03% | viability, T/C [17] 0.02% | viability, T/C [18] 0.02% | viability, T/C [19] 0.1% | viability, T/C [20] 0.08% | viability, T/C (second compound 10 µM, first compound 0.0001 µM) 0.13% | viability, T/C [21] 0.08% | viability, T/C [22] 0.07% | viability, T/C [23] 0.07% | viability, T/C [24] 0.08% | viability, T/C [25] 0.13%
< 0.1 nM: IC50 (second compound 0.1 µM) | IC50 (second compound 0.316 µM) | IC50 (second compound 1 µM) | IC50 (second compound 3.16 µM) | IC50 (second compound 10 µM)
inactive: viability, T/C (second compound 0.1 µM, first compound 0.0001 µM) 21.2% | viability, T/C [1] 12.7% | viability, T/C [2] 10.5% | viability, T/C (second compound 0.316 µM, first compound 0.0001 µM) 20.8% | viability, T/C [6] 12.2% | viability, T/C (second compound 1 µM, first compound 0.0001 µM) 17%

CN(C)C/C=C/C(=O)Nc1cc2c(Nc3ccc(F)c(Cl)c3)ncnc2cc1O[C@H]1CCOC1 + CNCc1ccccc1-c1csc(C(C)Nc2nc(C)nc3cc(OC)c(OC)cc23)c1
< 0.316 nM: IC50 (second compound 3.16 µM) | IC50 (second compound 10 µM)
active: viability, T/C [16] 0.27% | viability, T/C [17] 0.17% | viability, T/C [18] 0.19% | viability, T/C [19] 0.41% | viability, T/C [20] 0.63% | viability, T/C [29] 0.26% | viability, T/C [21] 0.08% | viability, T/C [22] 0.07% | viability, T/C [23] 0.07% | viability, T/C [24] 0.08% | viability, T/C [25] 0.08% | viability, T/C [30] 0.13%
> 100 nM: IC50 (second compound 0.1 µM) | IC50 (second compound 0.316 µM) | IC50 (second compound 1 µM)
inactive: viability, T/C [1] 105% | viability, T/C [2] 108% | viability, T/C [3] 102% | viability, T/C [4] 97% | viability, T/C [5] 108% | viability, T/C [26] 91.5% | viability, T/C [6] 98.2% | viability, T/C [7] 103% | viability, T/C [8] 103% | viability, T/C [9] 99.9% | viability, T/C [10] 97.8% | viability, T/C [27] 91.2% | viability, T/C [11] 107% | viability, T/C [12] 104% | viability, T/C [13] 87.7% | viability, T/C [14] 94.2% | viability, T/C [15] 84.9% | viability, T/C [28] 95.4%

COC(=O)c1ccc2c(C(=Nc3ccc(N(C)C(=O)CN4CCN(C)CC4)cc3)c3ccccc3)c(O)[nH]c2c1 + CNCc1ccccc1-c1csc(C(C)Nc2nc(C)nc3cc(OC)c(OC)cc23)c1
53.6 nM: IC50 (second compound 1 µM)
< 31.6 nM: IC50 (second compound 3.16 µM) | IC50 (second compound 10 µM)
270 nM: IC50 (second compound 0.316 µM)
active: viability, T/C (second compound 1 µM, first compound 3.16 µM) 1.75% | viability, T/C (second compound 1 µM, first compound 10 µM) 1.57% | viability, T/C [20] 0.32% | viability, T/C [29] 0.25% | viability, T/C (second compound 3.16 µM, first compound 0.316 µM) 0.19% | viability, T/C (second compound 3.16 µM, first compound 1 µM) 0.06% | viability, T/C (second compound 3.16 µM, first compound 3.16 µM) 0.13% | viability, T/C (second compound 3.16 µM, first compound 10 µM) 0.15% | viability, T/C [25] 0.09% | viability, T/C [30] 0.07% | viability, T/C (second compound 10 µM, first compound 0.316 µM) 0.06% | viability, T/C (second compound 10 µM, first compound 1 µM) 0.06% | viability, T/C (second compound 10 µM, first compound 3.16 µM) 0.05% | viability, T/C (second compound 10 µM, first compound 10 µM) 0.09%
inactive: viability, T/C [5] 84.1% | viability, T/C [26] 96.6% | viability, T/C (second compound 0.1 µM, first compound 0.316 µM) 55.8% | viability, T/C (second compound 0.1 µM, first compound 1 µM) 29.8% | viability, T/C (second compound 0.1 µM, first compound 3.16 µM) 12.4% | viability, T/C (second compound 0.1 µM, first compound 10 µM) 12.9% | viability, T/C [10] 75.3% | viability, T/C [27] 84.9% | viability, T/C (second compound 0.316 µM, first compound 0.316 µM) 42.5% | viability, T/C (second compound 0.316 µM, first compound 1 µM) 25.7% | viability, T/C (second compound 0.316 µM, first compound 3.16 µM) 6.84% | viability, T/C (second compound 0.316 µM, first compound 10 µM) 13% | viability, T/C [15] 56.5% | viability, T/C [28] 41.4% | viability, T/C (second compound 1 µM, first compound 0.316 µM) 27.6% | viability, T/C (second compound 1 µM, first compound 1 µM) 10.6%
445 nM: IC50 (second compound 0.1 µM)
